Measured values published in patent US5587479A, “Basic derivatives of glutamic acid and aspartic acid as gastrin or cholecystokinin antagonists” (priority 1992, dated 1996).
Values after ≈ are worked out from the molar mass of the structure shown. Read-outs that look alike come from different tables or passages of the source.

What was measured:
[1] = biological target: T1, central CCK-B receptors (guinea pig cortical membrane) (Cavia porcellus, UniProt H0VZC5); assay: Inhibition of binding of (3-H)[N-methyl-N-leucine]CCK-8 to guinea pig cortical membranes (anti-CCK-B); conditions: IC50, inhibition of binding of (3-H)[N-methyl-N-leucine]CCK-8 to the guinea pig cortical membrane, 150 minutes at 25° C.
T1 construct: Cerebral cortices of white male guinea pigs were therefore used; from tissue; host or cells: guinea pig cerebral cortex membranes
T1 sequence (H0VZC5 1-426): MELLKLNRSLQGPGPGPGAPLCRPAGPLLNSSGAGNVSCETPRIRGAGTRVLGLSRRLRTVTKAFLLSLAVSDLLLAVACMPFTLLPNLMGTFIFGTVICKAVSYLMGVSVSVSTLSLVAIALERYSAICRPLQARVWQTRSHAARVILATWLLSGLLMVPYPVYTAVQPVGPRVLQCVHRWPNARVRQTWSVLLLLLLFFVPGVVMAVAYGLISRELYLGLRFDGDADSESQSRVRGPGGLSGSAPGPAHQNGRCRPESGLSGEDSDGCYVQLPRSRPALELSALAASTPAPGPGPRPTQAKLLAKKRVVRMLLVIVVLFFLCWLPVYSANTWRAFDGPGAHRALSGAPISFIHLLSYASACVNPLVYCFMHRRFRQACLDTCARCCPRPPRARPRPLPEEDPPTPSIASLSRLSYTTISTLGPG
Description: Cerebral cortices of white male guinea pigs were therefore used, according to the method mentioned above, so as to obtain a membrane content/ml corresponding to about 300 mcg of proteins/mi. The membranes were incubated together with the radioactive tracer and the compounds under test for 150 minutes at 25° C. After the supernatant liquid had been discarded, the radioactivity associated with the pellet was determined with a liquid scintillator.

guinea-pig ureters = assay: Antispastic activity in vitro: spontaneous motility of guinea-pig ureters; conditions: Cavia porcellus
Description: The isotonic contractions were detected by means of a force transducer and recorded. […] A given concentration of the product under test was then introduced into the bath and left in contact with the prepared specimen for five minutes, after which the ureter was washed until its own spontaneous activity was re-established.

mouse = assay: Anxiolytic activity in the mouse, Black and White Box test; assay type: in vivo; conditions: for TOTAL MOV.: five minutes
Description: In order to confirm the hypothesis that the potent activity of some of the compounds of the invention against central CCK-B may be correlated with a possible anxiolytic activity, this potential activity was evaluated in the mouse with the use of the "Black and White Box test". This experimental model, which was carried out according to Costall et al. [Pharm. Biochem. Behav. 32 (1989), 777-785] used a box with dimensions of 45×21×21 (h) cm. divided into two compartments which communicated with each other by means of a 13×5 cm hole. The smaller compartment (1/3 of the total area) had black walls, whereas the larger had transparent walls and was illuminated by a lamp which was placed 20 cm above the box and supplied light at 20 W. Under the floor was an activity meter which registered the movements performed by the animal in the individual compartments. The experiment was started by placing the animal in the centre of the illuminated box; as well at its movements, the time which the animal spent in the dark and in the light and the number of times it moved between the 2 compartments were recorded for five minutes. In general, a control animal tended preferably to stay in the dark compartment where it felt better protected from an unusual enviromental situation which put it in a state of anxiety. In this experimental model ( see the reference cited above), a compound having anxiolytic activity decreased the % of movements into the dark in comparison with the total movements, increased the movements between the two light-dark compartments, and increased the % of the total time time spent in the light. The results obtained are given in Table 5 below in which the activities obtained with the compound 1 (the rectus series ) and its enantiomer 2 (sinister) tested in comparison with diazepam and the CCK-B antagonist L365-260.

[2] = force of the contractions, five minutes contact, 37° C., read-out: IC50 (force), inhibition of the spontaneous motility of guinea-pig ureters in vitro
[3] = frequency of the contractions, five minutes contact, 37° C., read-out: IC50 (frequency), inhibition of the spontaneous motility of guinea-pig ureters in vitro

Q: CCCCCN(CCCCC)C(=O)C(CCC(=O)NCCN1CCCCC1)NC(=O)c1ccc(C)c(C)c1 (stereo not drawn) [Compound 55] was tested. Which IC50 [1] did it give?
A: > 100 µM

Q: And the IC50 (guinea-pig ureters; [2])?
A: 11 µg/mL (≈ 20.8 µM)

Q: And the IC50 (guinea-pig ureters; [3])?
A: 18 µg/mL (≈ 34 µM)

Q: With CCCCCN(CCCCC)C(=O)C(CCC(=O)NCCN(C)C)NC(=O)c1ccc(C)c(C)c1 (stereo not drawn) [Compound 40] as the compound, how does the IC50 (guinea-pig ureters; [2]) read?
A: 27 µg/mL (≈ 55.2 µM)

Q: And the IC50 (guinea-pig ureters; [3])?
A: 44 µg/mL (≈ 90 µM)

Q: Which IC50 (guinea-pig ureters; [2]) does the source give for CCCCCN(CCCCC)C(=O)C(CCC(=O)NCCN1CCOCC1)NC(=O)c1ccc(C#N)cc1 (stereo not drawn) [Compound 34] here?
A: 12 µg/mL (≈ 22.7 µM)

Q: And the IC50 (guinea-pig ureters; [3])?
A: 12 µg/mL (≈ 22.7 µM)

Q: Which IC50 (guinea-pig ureters; [2]) does the source give for CCCCCN(CCCCC)C(=O)C(CCC(=O)NCCN(CC)CC)NC(=O)c1ccc(C)c(C)c1 (stereo not drawn) [Compound 42] here?
A: 18 µg/mL (≈ 34.8 µM)

Q: What about the IC50 (guinea-pig ureters; [3]) of the same compound?
A: 22 µg/mL (≈ 42.6 µM)

Q: Which IC50 (guinea-pig ureters; [2]) does the source give for CCCCCN(CCCCC)C(=O)C(CCC(=O)NCC1CCCN1CC)NC(=O)c1ccc(C)c(C)c1 (stereo not drawn) [Compound 58] here?
A: 14 µg/mL (≈ 26.5 µM)

Q: What about the IC50 (guinea-pig ureters; [3]) of the same compound?
A: 19 µg/mL (≈ 35.9 µM)

Q: How did the IC50 (guinea-pig ureters; [2]) turn out when CCCCN(CCCC)C(=O)C(CCC(=O)NCC1CCCN1CC)NC(=O)c1ccc(C)c(C)c1 (stereo not drawn) [Compound 31] was run?
A: 23 µg/mL (≈ 45.9 µM)

Q: CN1CCN(C(=O)CC[C@@H](NC(=O)c2cccc(Cl)c2)C(=O)N2CCC3(CCCC3)CC2)CC1 [Compound 7] was tested. Which IC50 [1] did it give?
A: 6.5 µM

Q: CCCCN(CCCC)C(=O)C(CCC(=O)NCCCN(C)C)NC(=O)c1ccc(C)c(C)c1 (stereo not drawn) [Compound 27] was tested. Which IC50 (guinea-pig ureters; [2]) did it give?
A: 33 µg/mL (≈ 69.5 µM)

Q: With CCCCCN(CCCCC)C(=O)C(CCC(=O)NCCCN(C)C)NC(=O)c1ccc(C)c(C)c1 (stereo not drawn) [Compound 41] as the compound, how does the IC50 (guinea-pig ureters; [2]) read?
A: 20 µg/mL (≈ 39.8 µM)

Q: What about the IC50 (guinea-pig ureters; [3]) of the same compound?
A: 28 µg/mL (≈ 55.7 µM)

Q: How did the IC50 (guinea-pig ureters; read-out: IC50 (force), inhibition of the spontaneous motility of guinea-pig ureters in vitro) turn out when COc1ccc(Cc2nccc3cc(OC)c(OC)cc23)cc1OC [Papaverine, reference compound] was run?
A: 23 µg/mL (≈ 67.8 µM)

Q: What about the IC50 (guinea-pig ureters; read-out: IC50 (frequency), inhibition of the spontaneous motility of guinea-pig ureters in vitro) of the same compound?
A: 27 µg/mL (≈ 79.6 µM)

Q: Which results are given for CCCCCN(CCCCC)C(=O)C(CCC(=O)NCCN1CCOCC1)NC(=O)c1ccc(C)cc1 (stereo not drawn) [Compound 33]?
A: IC50 (guinea-pig ureters; [2]): 18 µg/mL (≈ 34.8 µM); IC50 (guinea-pig ureters; [3]): 16 µg/mL (≈ 31 µM)

Q: CCCCN(CCCC)C(=O)C(CCC(=O)NCCN(C)C)NC(=O)c1ccc(C)c(C)c1 (stereo not drawn) [Compound 25] was tested. Which IC50 (guinea-pig ureters; [2]) did it give?
A: 36 µg/mL (≈ 78.1 µM)

Q: CCCCCN(CCCOC)C(=O)C(CCC(=O)NCCN1CCOCC1)NC(=O)c1ccc(C)c(C)c1 (stereo not drawn) [Compound 64] was tested. Which IC50 (guinea-pig ureters; [2]) did it give?
A: 59 µg/mL (≈ 111 µM)

Q: How did the “LIGHT TIME (%) TOTAL TIME” value (mouse; 1 mg/kg IP) turn out when CN1C(=O)CN=C(c2ccccc2)c2cc(Cl)ccc21 [DIAZEPAM, diazepam, reference compound] was run?
A: 29.3%

Q: And the “LIGHT TIME (%) TOTAL TIME: % EFF.VS CONTROL” value (mouse; 1 mg/kg IP)?
A: 19%

Q: And the “LIGHT-DARK MOVEMENTS” value (mouse; 1 mg/kg IP)?
A: 19.9

Q: What about the “LIGHT-DARK MOVEMENTS: % EFF. VS CONTROL” value (mouse; 1 mg/kg IP) of the same compound?
A: +37.2%

Q: What about the “MOV. DARK (%) TOTAL MOV.” value (mouse; 1 mg/kg IP) of the same compound?
A: 53%

Q: What about the “MOV. DARK (%) TOTAL MOV.: % EFF. VS CONTROL” value (mouse; 1 mg/kg IP) of the same compound?
A: -5%

Q: And the “TOTAL MOV.” value (mouse; 1 mg/kg IP)?
A: 508

Q: What about the “LIGHT TIME (%) TOTAL TIME” value (mouse; 3 mg/kg IP) of the same compound?
A: 33.6%

Q: What about the “LIGHT TIME (%) TOTAL TIME: % EFF.VS CONTROL” value (mouse; 3 mg/kg IP) of the same compound?
A: 36.7%

Q: And the “LIGHT-DARK MOVEMENTS” value (mouse; 3 mg/kg IP)?
A: 22.3

Q: And the “LIGHT-DARK MOVEMENTS: % EFF. VS CONTROL” value (mouse; 3 mg/kg IP)?
A: +53.8%

Q: And the “MOV. DARK (%) TOTAL MOV.” value (mouse; 3 mg/kg IP)?
A: 52%

Q: What about the “MOV. DARK (%) TOTAL MOV.: % EFF. VS CONTROL” value (mouse; 3 mg/kg IP) of the same compound?
A: -7%

Q: And the “TOTAL MOV.” value (mouse; 3 mg/kg IP)?
A: 539

Q: And the “anxiolytic activity in the Black and White Box test (in words)” value (mouse; IP)?
A: active in a dose-dependent manner for all the parameters tested

Q: How did the IC50 (guinea-pig ureters; [2]) turn out when CCCCCN(CCCCC)C(=O)[C@@H](CCC(=O)NCCN1CCOCC1)NC(=O)c1ccc(C)c(C)c1 [Compound 45] was run?
A: 8 µg/mL (≈ 15.1 µM)

Q: And the IC50 (guinea-pig ureters; [3])?
A: 6 µg/mL (≈ 11.3 µM)
